Assay [1] has as its target T1, NS3 (Hepatitis C virus, UniProt A3EZJ3). Briefly: Ability to inhibit the hydrolysis of chromogenic 4-phenylazophenyl ester from the peptide fragment Ac- DTEDVVP(Nva)-O-4-PAP in a HCV protease continuous assay. Details: species or system Hepacivirus hominis.
A further assay deals with T2, Neutrophil elastase (Homo sapiens, UniProt P08246).
T2 sequence (P08246 whole entry): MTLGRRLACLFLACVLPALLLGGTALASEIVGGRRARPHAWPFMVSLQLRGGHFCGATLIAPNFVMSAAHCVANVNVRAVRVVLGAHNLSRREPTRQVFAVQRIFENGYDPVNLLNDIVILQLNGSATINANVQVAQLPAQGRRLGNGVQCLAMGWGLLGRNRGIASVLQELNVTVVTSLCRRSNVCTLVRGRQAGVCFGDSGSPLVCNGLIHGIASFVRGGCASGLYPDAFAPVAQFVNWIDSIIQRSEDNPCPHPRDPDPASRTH
Briefly: Binding constant towards Human neutrophil elastase HNE protease.

Assay [2] deals with T1, NS3. Description: Ability to inhibit the hydrolysis of chromogenic […] ester from the peptide fragment Ac- DTEDVVP(Nva)-O-4-PAP in a HCV protease continuous assay. Details: species or system Hepacivirus hominis.

Molecules are shown by their SMILES.

This passage reports Ki results from ChEMBL document CHEMBL1140351, “Design and synthesis of depeptidized macrocyclic inhibitors of hepatitis C NS3-4A protease using structure-based drug design” (J Med Chem, 2005).

T1 sequence (A3EZJ3 whole entry, the tested form may be a part): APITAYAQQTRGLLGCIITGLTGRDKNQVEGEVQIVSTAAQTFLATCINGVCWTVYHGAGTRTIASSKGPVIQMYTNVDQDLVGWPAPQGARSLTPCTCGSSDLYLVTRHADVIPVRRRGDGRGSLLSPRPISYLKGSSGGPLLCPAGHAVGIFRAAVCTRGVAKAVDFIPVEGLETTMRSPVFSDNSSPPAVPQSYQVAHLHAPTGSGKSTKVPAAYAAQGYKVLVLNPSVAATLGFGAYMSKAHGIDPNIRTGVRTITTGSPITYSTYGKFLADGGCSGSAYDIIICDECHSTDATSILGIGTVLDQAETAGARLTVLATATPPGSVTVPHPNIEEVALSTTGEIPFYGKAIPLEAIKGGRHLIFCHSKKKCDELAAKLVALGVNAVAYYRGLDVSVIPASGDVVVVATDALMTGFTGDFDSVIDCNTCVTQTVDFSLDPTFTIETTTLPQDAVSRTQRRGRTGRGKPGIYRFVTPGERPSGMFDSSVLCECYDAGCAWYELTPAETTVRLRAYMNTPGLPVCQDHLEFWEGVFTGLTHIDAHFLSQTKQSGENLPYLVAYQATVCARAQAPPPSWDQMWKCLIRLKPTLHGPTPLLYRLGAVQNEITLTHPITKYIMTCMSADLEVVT

One may read the Ki as a measure of affinity in units of concentration, obtained from inhibition or displacement. A higher Ki goes with weaker binding. Consider `CCC[C@H](NC(=O)[C@@H]1Cc2cccc(c2)Oc2ccc(cc2)C[C@H](NC(C)=O)C(=O)N[C@@H](C2CCCCC2)C(=O)N1)C(=O)C(=O)NCC(=O)N[C@H](C(=O)O)c1ccccc1`, for which the Ki at NS3 [1] came to 800 nM. In other words, the sub-micromolar range.

On to `CCC[C@H](NC(=O)[C@@H]1Cc2cccc(c2)Oc2ccc(cc2)CCC(=O)N[C@@H](C2CCCCC2)C(=O)N1)C(=O)C(=O)NCC(=O)N[C@H](C(=O)O)c1ccccc1`, for which the Ki amounted to 110 nM at NS3 [1] and 2900 nM on Neutrophil elastase. As for `CCC[C@H](NC(=O)[C@@H]1Cc2cccc(c2)Oc2ccc(cc2)CCCCC(=O)N[C@@H](C2CCCCC2)C(=O)N1)C(=O)C(=O)NCC(=O)N[C@H](C(=O)O)c1ccccc1`, the Ki at NS3 [1] was 160 nM; at NS3 [2], 300 nM. `CCC[C@H](NC(=O)[C@@H]1Cc2cccc(c2)Oc2ccc(cc2)C[C@H](NC(=O)OC(C)(C)C)C(=O)N[C@@H](C2CCCCC2)C(=O)N1)C(=O)C(=O)NCC(=O)N[C@H](C(=O)O)c1ccccc1` displayed a Ki at NS3 [1] of 7800 nM. On the same count and under the same terms, to `CCC[C@H](NC(=O)[C@@H]1Cc2cccc(c2)Oc2ccc(cc2)C[C@H](NC(=O)OC(C)(C)C)C(=O)N[C@@H](C2CCCCC2)C(=O)N1)C(=O)C(=O)NCC(=O)O` belongs 12000 nM; to `CCC[C@H](NC(=O)[C@@H]1Cc2cccc(c2)Oc2ccc(cc2)CCCC(=O)N[C@@H](C2CCCCC2)C(=O)N1)C(=O)C(=O)NCC(=O)N[C@H](C(=O)O)c1ccccc1`, 300 nM.
